Earlier results on one compound are cited in patent US20090093547A1, “Compositions and Methods for Treating Premature Ejaculation” (Sciele Pharma, Inc., priority 2007, published 2009).

SMILES strings stand for the structures. Where a name gives a salt, the structure may show the parent alone.

The conditions of the series: hydrochloride salt crystallized from ethanol and isopropyl ether.

On to `CCCNC(C)C(=O)Nc1ccccc1C` (stereo not shown) [Prilocalne hydrochloride salt, Prilocalne], for which the solubility in water entry is recorded as “readily soluble”.
